From patent publication US20240150293A1, “SPIROCYCLOHEXANE DERIVATIVES, PHARMACEUTICAL COMPOSITIONS CONTAINING THEM AND THEIR USES AS ANTI-APOPTOTIC INHIBITORS” (LES LABORATOIRES SERVIER, priority 2021, published 2024) come the findings set out here.

The assay has as its target Mcl-1 protein (UniProtKB Q07820) (Homo sapiens (Human), UniProt Q07820). In words: Inhibition of Mcl-1 by the fluorescence polarisation assay (Example A, Method A). Particulars: fluorescence polarization assay. The assay is classed as binding. In outline: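 Protein (5 nM) and fluorescein-tagged peptide tracer (1 nM) incubated with 11-point compound series for 2 h at room temperature in HEPES/NaCl/Tween 20 buffer, pH 7.4, 5% DMSO. Displacement read as decrease in polarisation; IC50 fitted by 4-parameter logistic, converted to Ki (cKi or eKi).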
A general note: In fluorescence polarisation assays a small probe gives low polarisation when free and higher when bound to something large.

pKi: −log10 of the molar value.

Mcl-1 protein, sequence (Q07820 whole entry): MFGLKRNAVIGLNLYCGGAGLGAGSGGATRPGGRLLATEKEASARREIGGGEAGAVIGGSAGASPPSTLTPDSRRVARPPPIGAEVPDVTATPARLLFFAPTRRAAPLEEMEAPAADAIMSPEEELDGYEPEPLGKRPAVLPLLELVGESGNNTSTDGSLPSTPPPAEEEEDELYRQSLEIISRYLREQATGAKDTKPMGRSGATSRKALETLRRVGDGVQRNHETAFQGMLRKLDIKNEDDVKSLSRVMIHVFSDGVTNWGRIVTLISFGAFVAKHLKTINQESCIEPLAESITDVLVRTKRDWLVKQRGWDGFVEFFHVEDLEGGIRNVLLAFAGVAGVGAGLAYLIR

On to `O=C(O)C1(Nc2cccc(Br)c2)CCC2(CC1)c1ccccc1CC2c1cccc(Cl)c1` (stereo not shown) [Example 221, 4-(3-bromoanilino)-2′-(3-chlorophenyl)-2′,3′-dihydrospiro[cyclohexane-1,1′-indene]-4-carboxylic acid], for which the pKi is 6.00.

For `O=C(O)C1(Nc2cccc(Br)c2)CCC2(CC1)c1ccccc1CC2c1ccc(Cl)cc1` (stereo not shown) [Example 222, 4-(3-bromoanilino)-2′-(4-chlorophenyl)-2′,3′-dihydrospiro[cyclohexane-1,1′-indene]-4-carboxylic acid], the pKi was 5.65.

Turning to `COc1ccc(C2=Cc3ccccc3[C@]23CC[C@](Nc2cccc(Cl)c2)(C(=O)O)CC3)cc1C` [Example 224, (1r,4r)-4-(3-chloroanilino)-2′-(4-methoxy-3-methylphenyl)spiro[cyclohexane-1,1′-indene]-4-carboxylic acid], the pKi is 4.65.

Turning to `COc1ccc(C2=Cc3ccccc3[C@]23CC[C@@](Nc2cccc(Cl)c2)(C(=O)O)CC3)cc1C` [Example 225, (1s,4s)-4-(3-chloroanilino)-2′-(4-methoxy-3-methylphenyl)spiro[cyclohexane-1,1′-indene]-4-carboxylic acid], the pKi was 5.99.

With `COc1ccc(C2=Cc3ccccc3[C@]23CC[C@](Nc2cccc(Cl)c2)(C(=O)O)CC3)cc1Cl` [Example 226, (1r,4r)-4-(3-chloroanilino)-2′-(3-chloro-4-methoxyphenyl)spiro[cyclohexane-1,1′-indene]-4-carboxylic acid], the pKi was 4.63.

Regarding `COc1ccc(C2=Cc3ccccc3[C@]23CC[C@@](Nc2cccc(Cl)c2)(C(=O)O)CC3)cc1Cl` [Example 227, (1s,4s)-4-(3-chloroanilino)-2′-(3-chloro-4-methoxyphenyl)spiro[cyclohexane-1,1′-indene]-4-carboxylic acid], the pKi is 5.92.

Regarding `COc1ccc(C2=Cc3ccccc3[C@]23CC[C@](Nc2cccc(Cl)c2)(C(=O)O)CC3)c(C)c1` [Example 228, (1r,4r)-4-(3-chloroanilino)-2′-(4-methoxy-2-methylphenyl)spiro[cyclohexane-1,1′-indene]-4-carboxylic acid], the pKi is 4.83.

Turning to `COc1ccc(C2=Cc3ccccc3[C@]23CC[C@@](Nc2cccc(Cl)c2)(C(=O)O)CC3)c(C)c1` [Example 229, (1s,4s)-4-(3-chloroanilino)-2′-(4-methoxy-2-methylphenyl)spiro[cyclohexane-1,1′-indene]-4-carboxylic acid], the pKi is 5.87.

Turning to `COc1ccc(C2=Cc3ccccc3[C@]23CC[C@@](Nc2cccc(Cl)c2)(C(=O)O)CC3)cc1` [Example 230, (1s,4s)-4-(3-chloroanilino)-2′-(4-methoxyphenyl)spiro[cyclohexane-1,1′-indene]-4-carboxylic acid], the pKi was 5.97.

Turning to `Cc1cc(C2Cc3ccccc3C23CCC(Nc2cccc(Br)c2)(C(=O)O)CC3)cs1` (stereo not shown) [Example 232, 4-(3-bromoanilino)-2′-(5-methylthiophen-3-yl)-2′,3′-dihydrospiro[cyclohexane-1,1′-indene]-4-carboxylic acid], the pKi is 6.24.

Turning to `Cc1ccc(C2Cc3ccccc3C23CCC(Nc2cccc(Br)c2)(C(=O)O)CC3)o1` (stereo not shown) [Example 239, 4-(3-bromoanilino)-2′-(5-methylfuran-2-yl)-2′,3′-dihydrospiro[cyclohexane-1,1′-indene]-4-carboxylic acid], the pKi is 6.52.

Turning to `COc1ccc([C@@H]2Cc3ccccc3[C@]23CC[C@@](Nc2cccc(Cl)c2)(C(=O)O)CC3)cc1` [Example 240, (1r,2′S,4S)-4-(3-chloroanilino)-2′-(4-methoxyphenyl)-2′,3′-dihydrospiro[cyclohexane-1,1′-indene]-4-carboxylic acid], the pKi is 6.66.

Consider `COc1ccc([C@H]2Cc3ccccc3[C@]23CC[C@@](Nc2cccc(Cl)c2)(C(=O)O)CC3)cc1` [Example 241, (1r,2′R,4R)-4-(3-chloroanilino)-2′-(4-methoxyphenyl)-2′,3′-dihydrospiro[cyclohexane-1,1′-indene]-4-carboxylic acid], for which the pKi was 5.36.

Regarding `O=C(O)C1(Nc2cccc(Br)c2)CCC2(CC1)c1ccccc1CC2c1ccc(OCc2ccccc2)cc1` (stereo not shown) [Example 244, 2′-[4-(benzyloxy)phenyl]-4-(3-bromoanilino)-2′,3′-dihydrospiro[cyclohexane-1,1′-indene]-4-carboxylic acid], the pKi was 6.11.

In the case of `O=C(O)[C@]1(Nc2cccc(Cl)c2)CC[C@]2(CC1)C(c1coc3ccccc13)=Cc1ccccc12` [Example 245, (1s,4s)-2′-(1-benzofuran-3-yl)-4-(3-chloroanilino)spiro[cyclohexane-1,1′-indene]-4-carboxylic acid], the pKi was 5.37.

Regarding `COc1ccc(Cl)c(C2=Cc3ccccc3[C@]23CC[C@@](Nc2cccc(Cl)c2)(C(=O)O)CC3)c1` [Example 246, (1s,4s)-4-(3-chloroanilino)-2′-(2-chloro-5-methoxyphenyl)spiro[cyclohexane-1,1′-indene]-4-carboxylic acid], the pKi was 5.38.

Turning to `O=C(O)[C@]1(Nc2cccc(Cl)c2)CC[C@]2(CC1)C(c1ccc3occc3c1)=Cc1ccccc12` [Example 247, (1s,4s)-2′-(1-benzofuran-5-yl)-4-(3-chloroanilino)spiro[cyclohexane-1,1′-indene]-4-carboxylic acid], the pKi is 5.91.

As for `COc1cccc(C)c1C1=Cc2ccccc2[C@]12CC[C@@](Nc1cccc(Cl)c1)(C(=O)O)CC2` [Example 248, (1s,4s)-4-(3-chloroanilino)-2′-(2-methoxy-6-methylphenyl)spiro[cyclohexane-1,1′-indene]-4-carboxylic acid], the negative logarithm of the Ki (pKi) was 4.55.

Turning to `Cc1cccc(C)c1C1=Cc2ccccc2[C@]12CC[C@@](Nc1cccc(Cl)c1)(C(=O)O)CC2` [Example 249, (1s,4s)-4-(3-chloroanilino)-2′-(2,6-dimethylphenyl)spiro[cyclohexane-1,1′-indene]-4-carboxylic acid], the pKi was 4.72.

`COc1cccc(Cl)c1C1=Cc2ccccc2[C@]12CC[C@@](Nc1cccc(Cl)c1)(C(=O)O)CC2` [Example 250, (1s,4s)-4-(3-chloroanilino)-2′-(2-chloro-6-methoxyphenyl)spiro[cyclohexane-1,1′-indene]-4-carboxylic acid]: the pKi is 4.86.

In the case of `COc1ccc(C2=Cc3ccccc3[C@]23CC[C@@](Nc2cccc(Cl)c2)(C(=O)O)CC3)c(Cl)c1` [Example 251, (1s,4s)-4-(3-chloroanilino)-2′-(2-chloro-4-methoxyphenyl)spiro[cyclohexane-1,1′-indene]-4-carboxylic acid], the pKi was 5.77.

On to `COc1ccc(C)c(C2=Cc3ccccc3[C@]23CC[C@@](Nc2cccc(Cl)c2)(C(=O)O)CC3)c1` [Example 252, (1s,4s)-4-(3-chloroanilino)-2′-(5-methoxy-2-methylphenyl)spiro[cyclohexane-1,1′-indene]-4-carboxylic acid], for which the pKi was 5.28.

With `COc1cccc(C2=Cc3ccccc3[C@]23CC[C@@](Nc2cccc(Cl)c2)(C(=O)O)CC3)c1` [Example 253, (1s,4s)-4-(3-chloroanilino)-2′-(3-methoxyphenyl)spiro[cyclohexane-1,1′-indene]-4-carboxylic acid], the pKi was 6.08.

Regarding `Cn1ccc2cc(C3=Cc4ccccc4[C@]34CC[C@@](Nc3cccc(Cl)c3)(C(=O)O)CC4)ccc21` [Example 264, (1s,4s)-4-(3-chloroanilino)-2′-(1-methyl-1H-indol-5-yl)spiro[cyclohexane-1,1′-indene]-4-carboxylic acid], the pKi is 5.76.

Regarding `O=C(O)[C@]1(Nc2cccc(Cl)c2)CC[C@]2(CC1)C(c1ccc3ccoc3c1)=Cc1ccccc12` [Example 265, (1s,4s)-2′-(1-benzofuran-6-yl)-4-(3-chloroanilino)spiro[cyclohexane-1,1′-indene]-4-carboxylic acid], the pKi was 5.96.

For `O=C(O)[C@]1(Nc2cccc(Cl)c2)CC[C@]2(CC1)C(c1cccc3ccoc13)=Cc1ccccc12` [Example 266, (1s,4s)-2′-(1-benzofuran-7-yl)-4-(3-chloroanilino)spiro[cyclohexane-1,1′-indene]-4-carboxylic acid], the pKi was 6.23.

As to `COc1cccc(C2=Cc3ccccc3[C@]23CC[C@@](Nc2cccc(Cl)c2)(C(=O)O)CC3)c1Cl` [Example 267, (1s,4s)-4-(3-chloroanilino)-2′-(2-chloro-3-methoxyphenyl)spiro[cyclohexane-1,1′-indene]-4-carboxylic acid], the pKi is 6.59.

`Cn1ccc2cc(C3Cc4ccccc4[C@]34CC[C@@](Nc3cccc(Cl)c3)(C(=O)O)CC4)ccc21` (stereo partly shown) [Example 274, (1r,4r)-4-(3-chloroanilino)-2′-(1-methyl-1H-indol-5-yl)-2′,3′-dihydrospiro[cyclohexane-1,1′-indene]-4-carboxylic acid]: the pKi was 5.33.

Turning to `O=C(O)[C@]1(Nc2cccc(Cl)c2)CC[C@]2(CC1)C(C1=CCCCC1)=Cc1ccccc12` [Example 275, (1r,4r)-4-(3-chloroanilino)-2′-(cyclohex-1-en-1-yl)spiro[cyclohexane-1,1′-indene]-4-carboxylic acid], the negative-log Ki (pKi) is 5.00.

Turning to `CC1(C)[C@H]2C=C(C3=Cc4ccccc4[C@]34CC[C@@](Nc3cccc(Cl)c3)(C(=O)O)CC4)[C@]1(C)CC2` [Example 276, (1s,4S)-4-(3-chloroanilino)-2′-[(1R,4R)-1,7,7-trimethylbicyclo[2.2.1]hept-2-en-2-yl]spiro[cyclohexane-1,1′-indene]-4-carboxylic acid], the pKi is 4.44.

`O=C(O)[C@]1(Nc2cccc(Cl)c2)CC[C@]2(CC1)C(C1=CCCC1)=Cc1ccccc12` [Example 277, (1r,4r)-4-(3-chloroanilino)-2′-(cyclopent-1-en-1-yl)spiro[cyclohexane-1,1′-indene]-4-carboxylic acid]: the pKi was 5.22.

For orientation: pKi means the Ki on a negative log10 scale, so that one unit is a factor of ten.
